From ChEMBL document CHEMBL1129469, “Nonpeptide angiotensin II receptor antagonists: the next generation in antihypertensive therapy” (J Med Chem, 1996)
Positions count from the first letter of the chain named. Blank lines part the entries; values can stand above or below the compound they belong to.

Columns and labels:
HASMC = assay: Inhibitory activity against Ang II-induced proliferation of human aortic smooth muscle cells in a dose-dependent manner; assay type: functional, cell-based
Oryctolagus cuniculus [1] = species: Oryctolagus cuniculus; assay: (§1) Compound was tested for its antagonistic activity against angiotensin II-induced contractions in rabbit aorta; assay type: functional, organism-based
[2] = target: T1, Angiotensin II receptor (AT-1) type-1 (Rattus norvegicus, UniProt P29089+P25095); assay: Binding affinity was evaluated towards Angiotensin II receptor, type 1 in rat adrenal membrane; assay type: cell membranes
T1 sequence (P29089 whole entry): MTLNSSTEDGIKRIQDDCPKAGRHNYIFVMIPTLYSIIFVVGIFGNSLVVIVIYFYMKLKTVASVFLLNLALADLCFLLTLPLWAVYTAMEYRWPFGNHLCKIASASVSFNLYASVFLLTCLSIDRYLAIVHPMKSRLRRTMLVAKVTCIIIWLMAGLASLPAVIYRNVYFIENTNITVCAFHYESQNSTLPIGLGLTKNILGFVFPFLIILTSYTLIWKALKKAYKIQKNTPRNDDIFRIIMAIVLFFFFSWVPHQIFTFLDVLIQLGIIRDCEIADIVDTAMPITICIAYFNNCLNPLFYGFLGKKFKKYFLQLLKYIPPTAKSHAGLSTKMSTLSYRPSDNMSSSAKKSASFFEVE
T1 sequence (P25095 whole entry): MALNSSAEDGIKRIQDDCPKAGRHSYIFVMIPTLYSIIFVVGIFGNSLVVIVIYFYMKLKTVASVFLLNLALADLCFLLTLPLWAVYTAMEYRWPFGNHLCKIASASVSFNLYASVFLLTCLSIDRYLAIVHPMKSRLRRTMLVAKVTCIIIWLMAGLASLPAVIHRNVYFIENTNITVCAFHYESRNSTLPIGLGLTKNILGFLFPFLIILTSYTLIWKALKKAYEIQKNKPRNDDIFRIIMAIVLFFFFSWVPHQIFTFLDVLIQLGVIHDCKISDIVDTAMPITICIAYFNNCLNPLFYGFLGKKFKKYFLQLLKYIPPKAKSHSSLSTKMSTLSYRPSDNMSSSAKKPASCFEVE

Oryctolagus cuniculus [3] = species: Oryctolagus cuniculus; assay: as §1; assay type: functional
[4] = target: T2, Type-2 angiotensin II receptor (Homo sapiens, UniProt P50052); assay: Ki value was evaluated against Angiotensin II receptor, type 2
T2 sequence (P50052 whole entry): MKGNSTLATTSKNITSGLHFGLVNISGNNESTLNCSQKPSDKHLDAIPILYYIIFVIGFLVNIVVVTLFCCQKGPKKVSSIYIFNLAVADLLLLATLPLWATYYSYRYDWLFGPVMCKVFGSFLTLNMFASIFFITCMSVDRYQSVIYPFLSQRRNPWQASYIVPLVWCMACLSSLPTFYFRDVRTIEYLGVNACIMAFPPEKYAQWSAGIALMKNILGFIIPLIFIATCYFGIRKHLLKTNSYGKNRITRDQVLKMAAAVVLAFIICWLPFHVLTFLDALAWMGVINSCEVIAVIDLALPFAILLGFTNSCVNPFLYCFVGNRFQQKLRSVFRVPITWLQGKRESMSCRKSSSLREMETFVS

[5] = target: T3, Type-1 angiotensin II receptor (Homo sapiens, UniProt P30556); assay: Ki value was evaluated against Angiotensin II receptor, type 1
T3 sequence (P30556 whole entry): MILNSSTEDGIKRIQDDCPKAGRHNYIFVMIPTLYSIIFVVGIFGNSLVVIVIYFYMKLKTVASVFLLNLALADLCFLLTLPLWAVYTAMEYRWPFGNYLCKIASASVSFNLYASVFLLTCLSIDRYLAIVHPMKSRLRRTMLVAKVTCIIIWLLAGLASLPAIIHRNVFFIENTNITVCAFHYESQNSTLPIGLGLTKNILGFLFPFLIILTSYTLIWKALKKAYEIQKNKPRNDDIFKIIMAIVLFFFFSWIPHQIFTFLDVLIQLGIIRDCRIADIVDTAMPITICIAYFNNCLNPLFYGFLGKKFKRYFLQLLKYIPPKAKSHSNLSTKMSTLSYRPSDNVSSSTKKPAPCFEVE

Rattus norvegicus [6] = assay: Intravenous effective dose required for lowering blood pressure in renal hypertensive rats (RHR); assay type: functional
[7] = Oral bioavailability was evaluated in rat by oral administration; assay type: ADME, organism-based; settings: in vivo
[8] = Oral bioavailability in rat; assay type: ADME, organism-based; settings: in vivo
[9] = Oral bioavailability was evaluated in rhesus monkey; assay type: ADME, organism-based, Macaca mulatta; settings: in vivo
Rattus norvegicus [10] = assay: Intravenous effective dose required for inhibition of Ang II pressor response in conscious rat; assay type: functional
Rattus norvegicus [11] = assay: Oral effective dose required for inhibition of Ang II pressor response in conscious rat; assay type: functional
Rattus norvegicus [12] = species: Rattus norvegicus; assay: pA2 value was evaluated against angiotensin II-induced aldosterone release in rat adrenal cortical cells; assay type: functional, cell-based; settings: read-out: pA2 (converted)
Canis familiaris [13] = assay: Compound at an oral dose of 30 mg/Kg was tested for the inhibition of Ang-II induced pressor responses in conscious dog; assay type: functional; settings: Canis lupus familiaris
Rattus norvegicus [14] = assay: Compound at an oral dose of 3 mg/Kg was tested for the inhibition of Ang-II induced pressor responses in conscious rats; assay type: functional
[15] = target: T4, Type-1 angiotensin II receptor (Oryctolagus cuniculus, UniProt P34976); assay: Inhibitory activity was evaluated against angiotensin II type 1 rabbit aorta; assay type: tissue-based
T4 sequence (P34976 whole entry): T3 sequence (P30556 whole entry) with I2M, V49A, I254V, I270V, R272H, R311K, T349S, A353V

Rattus norvegicus [16] = assay: Effective dose was evaluated in pithed normotensive rats by intraveneous administration; assay type: functional; settings: iv
Rattus norvegicus [17] = assay: Effective dose was evaluated in pithed normotensive rats by oral administration; assay type: functional
Rattus norvegicus [18] = species: Rattus norvegicus; assay: pD'2 value was evaluated against in rat portal vein; assay type: functional
[19] = Inhibitory activity was evaluated against Angiotensin II receptor, type 2
Rattus norvegicus [20] = assay: Dose dependent inhibition of pressor responses to Ang-II in conscious normotensive rat by bolus intravenous administration; assay type: functional; settings: read-out: ID50 (the source's name)
Rattus norvegicus [21] = assay: Dose dependent inhibition of pressor responses to Ang-II receptor in conscious normotensive rat by intraduodenal administration; assay type: functional; settings: read-out: ID50 (the source's name)
Oryctolagus cuniculus [22] = species: Oryctolagus cuniculus; assay: Inhibitory activity against angiotensin II type 1 induced contractions in rabbit aorta; assay type: functional
[23] = target: T1, Angiotensin II receptor (AT-1) type-1; assay: Inhibitory activity against Angiotensin II receptor, type 1 in rat aortic membrane; assay type: cell membranes
[24] = Oral Bioavailability was evaluated in cynomolgus monkeys by oral administration; assay type: ADME, organism-based, Macaca fascicularis; settings: cynomolgus monkey, in vivo
[25] = Oral Bioavailability was evaluated in dog by oral administration; assay type: ADME, organism-based, Canis lupus familiaris; settings: in vivo
[26] = target: T1, Angiotensin II receptor (AT-1) type-1; assay: In vitro antagonistic potency against Angiotensin II receptor, type 1 in rat liver; assay type: functional, tissue-based
Canis familiaris [27] = assay: Oral effective dose required for inhibition of Ang II pressor response in conscious dog; assay type: functional; settings: Canis lupus familiaris
Rhesus monkey = assay: Oral effective dose required for inhibition of Ang II pressor response in conscious rhesus monkey; assay type: functional, Cercopithecidae; settings: Macaca mulatta

- IC50 (Oryctolagus cuniculus [1]): 4 nM
SMILES: CCCCC1=NC2(CCCC2)C(=O)N1Cc1ccc(-c2ccccc2-c2nnn[nH]2)cc1 [IRBESARTAN]
- IC50 (HASMC): 320 nM

- Ki [2]: 24 nM
SMILES: CCCc1nc(C)n2[nH]c(=O)nc2c1Cc1ccc(-c2ccccc2-c2nnn[nH]2)cc1
- Kb (Oryctolagus cuniculus [3]): 0.29 nM

- Ki [4]: 480 nM
- Ki [5]: 29 nM
SMILES: CCCCc1nc2ccc(NC(=O)NC3CCCCC3)cc2n1Cc1ccc(-c2ccccc2C(=O)O)cc1
- ED30 (Rattus norvegicus [6]): ~2 mg/kg

- bioavailability [7]: 70%
- bioavailability [8]: 100%
- bioavailability [9]: 32%
SMILES: CCc1nc2c(C)cc(C)nc2n1Cc1ccc(-c2ccccc2-c2nn[nH]n2)cc1 [L-158809]
- Kb (Oryctolagus cuniculus [3]): 0.28 nM
- pKB (Oryctolagus cuniculus [3]): 9.3
- ED50 (Rattus norvegicus [10]): 0.029 mg/kg
- ED50 (Rattus norvegicus [11]): 0.023 mg/kg
- Kb (Rattus norvegicus [12]): 0.0316 nM

SMILES: CCCCc1nc(CCCC)n(Cc2ccc(-c3ccccc3-c3nnn[nH]3)nc2)n1 [FORASARTAN]
- inhibition in vivo at 30 mg/kg (Canis familiaris [13]): 91%

SMILES: CCc1nc2c(C)cc(C)nc2n1Cc1ccc2c(c1)C(Cc1nnn[nH]1)c1ccccc1-2 (stereo not drawn)
- inhibition in vivo at 3 mg/kg (Rattus norvegicus [14]): 73%

- IC50 [15]: 1.7 nM
SMILES: CCc1nc2c(CC)cn(Cc3ccc(-c4ccccc4-c4nn[nH]n4)cc3)n2n1

- IC50 [19]: 920 nM
SMILES: CCCCc1nc(SC)c(C(=O)O)n1Cc1ccc(-c2ccccc2S(=O)(=O)NC(=O)NCCC)cc1
- ED50 (Rattus norvegicus [16]): 0.11 mg/kg
- ED50 (Rattus norvegicus [17]): 0.7 mg/kg
- pD'2 (Rattus norvegicus [18]): 10.15

SMILES: CCCCc1ncc(/C=C(\Cc2cccs2)C(=O)O)n1Cc1ccc(C(=O)O)cc1 [EPROSARTAN]
- ED50 (Rattus norvegicus [20]): 0.08 mg/kg
- ED50 (Rattus norvegicus [21]): 5.5 mg/kg

- IC50 (Oryctolagus cuniculus [22]): 0.3 nM
SMILES: CCOc1nc2cccc(C(=O)O)c2n1Cc1ccc(-c2ccccc2-c2nnn[nH]2)cc1

- IC50 [23]: 2.7 nM
SMILES: CCCCC(=O)N(Cc1ccc(-c2ccccc2-c2nnn[nH]2)cc1)[C@H](C(=O)O)C(C)C

- bioavailability [24]: > 50%
- bioavailability [25]: > 50%
- bioavailability [8]: > 50%
- Ki [26]: 0.76 nM
SMILES: CCCN(Cc1ccc(-c2ccccc2-c2nn[nH]n2)cc1)c1ncccc1C(=O)O

SMILES: CCc1nc2c(C)cc(C)nc2n1Cc1ccc(-c2ccccc2S(=O)(=O)NC(=O)c2ccccc2)cc1
- ED50 (Canis familiaris [27]): 0.035 mg/kg
- ED50 (Rattus norvegicus [11]): 0.067 mg/kg
- ED50 (Rhesus monkey): 0.1 mg/kg
